The source of these data is PubChem BioAssay (NCI).

Molecules are shown by their SMILES.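 Results reflect a 48-hour exposure of cells in 96-well plates to compound at five concentrations. Here, GI50 denotes the concentration required for 50% inhibition of growth. TGI: total growth inhibition.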

Some test systems named below: EKVX NSCLC; MDA-MB-231 breast; IGROV1 ovarian; A498 renal; UACC-62 melanoma; OVCAR-5 ovarian; HS 578T breast; SF-539 CNS; HOP-62 NSCLC; T-47D breast.
What all share (experiment): DTP human tumour cell line panel, 48 h

As usually defined, the GI50 is the concentration that inhibits growth by half. As usually defined, the TGI is the concentration at which net growth stops. High values mean less potent growth arrest, low ones more potent growth arrest. Regarding `Cc1cc(I)cc(CNCCCN2CCSCC2)c1O`, the GI50 in the assay with EKVX NSCLC was 19.1 µM; in the assay on MDA-MB-231 breast, 18.2 µM; in the assay with IGROV1 ovarian, 13.8 µM; in the assay with A498 renal, 13.7 µM; with UACC-62 melanoma it was 12.7 µM; in the assay with OVCAR-5 ovarian, 15.9 µM. For the same molecule, the GI50 is 12.1 µM in the assay with HS 578T breast, 16.8 µM in the assay with SF-539 CNS, 14.3 µM with HOP-62 NSCLC and 16 µM with T-47D breast. For the same molecule, the TGI in the assay with EKVX NSCLC was 50.3 µM; with MDA-MB-231 breast it was 41.8 µM; with IGROV1 ovarian, 29.7 µM; in the assay with A498 renal, 28.5 µM; in the assay with UACC-62 melanoma, 30.9 µM; with OVCAR-5 ovarian it was 41.7 µM. The TGI in the assay on HS 578T breast was 26.6 µM; in the assay with SF-539 CNS, 30.8 µM; in the assay with HOP-62 NSCLC, 28.3 µM; in the assay on T-47D breast, 40.6 µM.
In the case of `O=C1NNC=Nc2ccc(cc2)S(=O)(=O)c2ccc(cc2)N=CNNC1=O`, the TGI with EKVX NSCLC, with MDA-MB-231 breast, in the assay with IGROV1 ovarian, in the assay on A498 renal, in the assay on UACC-62 melanoma and in the assay with OVCAR-5 ovarian was > 100 µM in each case. The TGI in the assay on HS 578T breast, with SF-539 CNS, with HOP-62 NSCLC and with T-47D breast was > 100 µM each time.
With `O=NN(Cc1ccc(Cl)cc1)C(C(=O)O)c1ccccc1` (stereo not given), the TGI in the assay on EKVX NSCLC, in the assay on MDA-MB-231 breast, in the assay on IGROV1 ovarian, with A498 renal, in the assay on UACC-62 melanoma and in the assay on OVCAR-5 ovarian was > 100 µM each time. For the same molecule, the TGI in the assay on HS 578T breast, in the assay with SF-539 CNS, with HOP-62 NSCLC and in the assay on T-47D breast was > 100 µM in each case.
For `COc1ccc(C2=NN(C(=O)c3cc(OC)c(OC)c(OC)c3)C(c3ccc(C#N)cc3)C2)cc1OC` (stereo not given), the GI50 is 4.59 µM in the assay on EKVX NSCLC; 2.86 µM in the assay on MDA-MB-231 breast; 1.18 µM in the assay on IGROV1 ovarian; 0.374 µM with A498 renal; 0.737 µM in the assay on UACC-62 melanoma; 5.24 µM in the assay on OVCAR-5 ovarian. Besides, the GI50 in the assay on HS 578T breast is 1.53 µM; with SF-539 CNS, 0.882 µM; in the assay on HOP-62 NSCLC, 1.53 µM; with T-47D breast it was 3.64 µM. Further, the TGI in the assay with EKVX NSCLC was > 100 µM; in the assay on MDA-MB-231 breast it was > 45.6 µM; in the assay on IGROV1 ovarian it was 18.9 µM; in the assay on A498 renal, 4.34 µM; in the assay with UACC-62 melanoma, > 53.1 µM; with OVCAR-5 ovarian, > 100 µM. Also, the values for the TGI in the assay on HS 578T breast, in the assay on HOP-62 NSCLC and in the assay with T-47D breast were > 26 µM, 36.9 µM and 97.6 µM, respectively.
`Cn1cc(-c2cnc3ccc(NC(=O)Nc4ccc(F)c(Br)c4)cc3n2)cn1`: the GI50 was 2.55 µM in the assay on EKVX NSCLC; 1.78 µM in the assay on MDA-MB-231 breast; 1.6 µM with IGROV1 ovarian; 1.51 µM with A498 renal; 1.68 µM in the assay on UACC-62 melanoma; 1.94 µM with OVCAR-5 ovarian. Besides, the GI50 is 2 µM with HS 578T breast, 1.75 µM in the assay with SF-539 CNS, 1.8 µM in the assay with HOP-62 NSCLC and 0.631 µM in the assay with T-47D breast. The TGI in the assay with EKVX NSCLC was 7.96 µM; with MDA-MB-231 breast, 4.14 µM; in the assay on IGROV1 ovarian it was 3.49 µM; in the assay with A498 renal, 4.04 µM; with UACC-62 melanoma it was 3.74 µM; in the assay with OVCAR-5 ovarian it was 4.53 µM. Also, the TGI with HS 578T breast worked out at 5.15 µM; in the assay on SF-539 CNS, 3.4 µM; in the assay on HOP-62 NSCLC it was 3.84 µM; in the assay with T-47D breast, 2.27 µM.
In the case of `O=C(O)CCCCC(CCSCc1ccccc1)SCc1ccccc1` (stereo not given), the GI50 with EKVX NSCLC is 40.3 µM; in the assay with MDA-MB-231 breast, > 66.9 µM; in the assay on IGROV1 ovarian it was 42.4 µM; with A498 renal it was > 38.9 µM; in the assay on UACC-62 melanoma, 21.5 µM; with OVCAR-5 ovarian, > 100 µM. The GI50 was 50.3 µM in the assay on HS 578T breast, 66.5 µM in the assay with SF-539 CNS, 68.6 µM in the assay with HOP-62 NSCLC and 44 µM in the assay on T-47D breast. Besides, the TGI is > 100 µM in the assay on EKVX NSCLC; > 100 µM in the assay with MDA-MB-231 breast; > 100 µM in the assay with IGROV1 ovarian; > 96.7 µM in the assay with A498 renal; 60.9 µM in the assay on UACC-62 melanoma; > 100 µM in the assay on OVCAR-5 ovarian. In addition, the TGI with HS 578T breast, in the assay with SF-539 CNS, with HOP-62 NSCLC and in the assay on T-47D breast was > 100 µM throughout.
With `O=C1/C(=C/c2ccc(Br)cc2)C=C(c2ccccc2)N1CCc1ccccc1`, the GI50 with EKVX NSCLC was 1.95 µM; in the assay on MDA-MB-231 breast it was 1.67 µM; in the assay on IGROV1 ovarian, 1.71 µM; in the assay with A498 renal, 0.652 µM; in the assay with OVCAR-5 ovarian it was 4.28 µM; in the assay on HS 578T breast it was 0.831 µM. Moreover, the GI50 in the assay with SF-539 CNS is 1.77 µM; with HOP-62 NSCLC it was 0.347 µM; with T-47D breast, 13.3 µM. Moreover, the TGI in the assay with EKVX NSCLC came out at 19 µM; in the assay with MDA-MB-231 breast, 24.7 µM; in the assay with IGROV1 ovarian, 12 µM; in the assay with A498 renal, 5.44 µM; in the assay with OVCAR-5 ovarian, 40.2 µM; in the assay on HS 578T breast, 5.33 µM. The TGI was 5.57 µM in the assay on SF-539 CNS, 1.22 µM in the assay on HOP-62 NSCLC and > 100 µM in the assay on T-47D breast.
On to `CN1CCN(Cc2ccc(NC(=O)c3cncc(C#Cc4cnc(N)c5ccc(C#N)cc45)c3)cc2C(F)(F)F)CC1`, for which the GI50 with EKVX NSCLC is 0.185 µM; in the assay on MDA-MB-231 breast it was 0.037 µM; in the assay on A498 renal, 0.0208 µM; with UACC-62 melanoma, 0.0279 µM; with OVCAR-5 ovarian, 0.211 µM; in the assay with HS 578T breast, 0.0217 µM. In addition, the 50% growth inhibitory concentration (GI50) in the assay with SF-539 CNS is 0.101 µM; with HOP-62 NSCLC, 0.0439 µM; in the assay with T-47D breast, 0.247 µM. The TGI in the assay on EKVX NSCLC is 6.13 µM; with MDA-MB-231 breast, 0.228 µM; in the assay with A498 renal it was 0.478 µM; in the assay on UACC-62 melanoma, 0.422 µM; with OVCAR-5 ovarian it was 0.986 µM; with HS 578T breast, 0.406 µM. Besides, the TGI worked out at 0.598 µM with SF-539 CNS, 0.927 µM in the assay with HOP-62 NSCLC and 2.03 µM in the assay with T-47D breast.
